Laboratory results: ChEMBL document CHEMBL4507282, “Data for DCP probe BI-1950” (2021)

Key:
[1] = test system: Tyrosine-protein kinase ABL1 (Homo sapiens), P00519 [E255K]; settings: Compound concentration 1000.0 nM
[2] = target: Cyclin-dependent kinase 15 (Homo sapiens) (UniProt Q96Q40); settings: Compound concentration 1000.0 nM
[3] = target: Mitogen-activated protein kinase 12 (Homo sapiens) (UniProt P53778); settings: Compound concentration 1000.0 nM
[4] = target: Homeodomain-interacting protein kinase 3 (Homo sapiens) (UniProt Q9H422); settings: Compound concentration 1000.0 nM
[5] = target: Inhibitor of nuclear factor kappa-B kinase subunit beta (Homo sapiens) (UniProt O14920); settings: Compound concentration 1000.0 nM
[6] = target: Tyrosine-protein kinase Yes (Homo sapiens) (UniProt P07947); settings: Compound concentration 1000.0 nM
[7] = target: Casein kinase I isoform gamma-2 (Homo sapiens) (UniProt P78368); settings: Compound concentration 1000.0 nM
Sequence of Casein kinase I isoform gamma-2 (Homo sapiens) (P78368 whole entry, looked up, canonical isoform): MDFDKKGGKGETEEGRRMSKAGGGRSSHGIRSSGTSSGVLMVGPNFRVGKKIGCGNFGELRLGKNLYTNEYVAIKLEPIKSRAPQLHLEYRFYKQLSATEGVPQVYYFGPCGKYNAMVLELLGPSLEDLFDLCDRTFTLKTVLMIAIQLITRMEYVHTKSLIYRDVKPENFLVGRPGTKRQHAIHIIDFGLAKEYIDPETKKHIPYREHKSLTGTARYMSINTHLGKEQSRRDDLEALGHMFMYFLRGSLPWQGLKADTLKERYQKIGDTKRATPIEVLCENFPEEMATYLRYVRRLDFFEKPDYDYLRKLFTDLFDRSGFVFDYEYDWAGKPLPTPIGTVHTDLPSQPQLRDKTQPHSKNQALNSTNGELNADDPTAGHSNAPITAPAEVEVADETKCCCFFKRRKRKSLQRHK

[8] = target: Serine/threonine-protein kinase 32B (Homo sapiens) (UniProt Q9NY57); settings: Compound concentration 1000.0 nM
[9] = target: Phosphatidylinositol 4,5-bisphosphate 3-kinase catalytic subunit alpha isoform (Homo sapiens) (UniProt P42336); settings: Compound concentration 1000.0 nM
[10] = target: Ribosomal protein S6 kinase alpha-3 (Homo sapiens) (UniProt P51812); settings: Compound concentration 1000.0 nM
[11] = target: Mitotic checkpoint serine/threonine-protein kinase BUB1 (Homo sapiens) (UniProt O43683); settings: Compound concentration 1000.0 nM
Sequence of Mitotic checkpoint serine/threonine-protein kinase BUB1 (Homo sapiens) (O43683 whole entry, looked up): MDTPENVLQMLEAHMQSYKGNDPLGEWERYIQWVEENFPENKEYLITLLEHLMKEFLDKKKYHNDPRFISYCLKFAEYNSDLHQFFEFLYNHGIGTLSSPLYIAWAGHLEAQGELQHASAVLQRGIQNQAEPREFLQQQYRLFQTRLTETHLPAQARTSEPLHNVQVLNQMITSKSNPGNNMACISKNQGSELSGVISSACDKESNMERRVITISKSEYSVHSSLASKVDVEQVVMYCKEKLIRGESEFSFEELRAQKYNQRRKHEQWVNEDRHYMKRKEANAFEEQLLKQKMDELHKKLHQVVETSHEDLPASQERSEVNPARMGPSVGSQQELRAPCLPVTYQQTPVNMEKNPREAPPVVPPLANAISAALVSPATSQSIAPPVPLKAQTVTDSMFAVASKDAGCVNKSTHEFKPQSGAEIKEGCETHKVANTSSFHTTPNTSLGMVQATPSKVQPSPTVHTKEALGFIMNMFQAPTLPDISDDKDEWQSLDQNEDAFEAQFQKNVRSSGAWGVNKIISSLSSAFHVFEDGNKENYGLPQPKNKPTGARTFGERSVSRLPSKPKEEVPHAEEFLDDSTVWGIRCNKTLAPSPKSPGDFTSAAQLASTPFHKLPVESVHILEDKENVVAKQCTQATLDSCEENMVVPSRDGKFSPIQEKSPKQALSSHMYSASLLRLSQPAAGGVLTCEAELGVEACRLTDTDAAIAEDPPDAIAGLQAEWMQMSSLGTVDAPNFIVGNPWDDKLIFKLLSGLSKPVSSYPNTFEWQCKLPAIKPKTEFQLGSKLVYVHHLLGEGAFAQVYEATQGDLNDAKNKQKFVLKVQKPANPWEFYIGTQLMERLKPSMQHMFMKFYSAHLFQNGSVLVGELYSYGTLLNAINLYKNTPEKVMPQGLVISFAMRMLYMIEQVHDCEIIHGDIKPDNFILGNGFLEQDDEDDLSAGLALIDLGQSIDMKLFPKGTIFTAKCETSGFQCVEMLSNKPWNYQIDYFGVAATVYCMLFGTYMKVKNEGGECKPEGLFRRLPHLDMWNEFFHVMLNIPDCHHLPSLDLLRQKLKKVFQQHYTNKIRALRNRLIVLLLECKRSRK

[12] = target: Inhibitor of nuclear factor kappa-B kinase subunit alpha (Homo sapiens) (UniProt O15111); settings: Compound concentration 1000.0 nM
Sequence of Inhibitor of nuclear factor kappa-B kinase subunit alpha (Homo sapiens) (O15111 whole entry): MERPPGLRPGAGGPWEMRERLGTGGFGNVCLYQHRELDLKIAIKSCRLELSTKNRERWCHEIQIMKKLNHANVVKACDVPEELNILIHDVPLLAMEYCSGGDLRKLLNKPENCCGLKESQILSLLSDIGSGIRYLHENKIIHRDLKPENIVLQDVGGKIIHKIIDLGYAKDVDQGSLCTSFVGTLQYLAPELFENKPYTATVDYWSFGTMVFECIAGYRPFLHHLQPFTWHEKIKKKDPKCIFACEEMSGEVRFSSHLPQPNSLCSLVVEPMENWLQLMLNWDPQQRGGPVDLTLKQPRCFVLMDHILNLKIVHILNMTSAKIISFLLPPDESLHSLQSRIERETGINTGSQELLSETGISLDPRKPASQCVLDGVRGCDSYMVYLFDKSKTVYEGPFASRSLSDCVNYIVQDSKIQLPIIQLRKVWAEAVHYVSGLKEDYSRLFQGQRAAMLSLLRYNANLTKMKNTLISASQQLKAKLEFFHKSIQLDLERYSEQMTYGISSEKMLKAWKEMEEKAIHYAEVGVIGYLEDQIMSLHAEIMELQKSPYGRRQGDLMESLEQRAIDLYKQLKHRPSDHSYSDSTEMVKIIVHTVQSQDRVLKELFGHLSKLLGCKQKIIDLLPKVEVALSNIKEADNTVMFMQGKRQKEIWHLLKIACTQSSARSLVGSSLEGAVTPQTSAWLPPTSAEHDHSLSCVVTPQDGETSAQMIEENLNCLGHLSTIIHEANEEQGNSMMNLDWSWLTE

[13] = target: Non-receptor tyrosine-protein kinase TYK2 (Homo sapiens) (UniProt P29597); settings: Compound concentration 1000.0 nM
[14] = target: Ribosomal protein S6 kinase alpha-1 (Homo sapiens) (UniProt Q15418); settings: Compound concentration 1000.0 nM
[15] = test system: Tyrosine-protein kinase ABL1 (Homo sapiens), P00519 [H396P]; settings: Compound concentration 1000.0 nM
[16] = target: Cyclin-dependent kinase 2 homolog (Plasmodium falciparum (isolate 3D7)) (UniProt P61075); settings: Compound concentration 1000.0 nM
[17] = target: Tyrosine-protein kinase Blk (Homo sapiens) (UniProt P51451); settings: Compound concentration 1000.0 nM
[18] = test system: Receptor-type tyrosine-protein kinase FLT3 (Homo sapiens), P36888 [R834Q]; settings: Compound concentration 1000.0 nM
[19] = target: Cyclin-dependent kinase 17 (Homo sapiens) (UniProt Q00537); settings: Compound concentration 1000.0 nM
[20] = target: Histamine H3 receptor (Homo sapiens) (UniProt Q9Y5N1); settings: Compound concentration 10.0 uM
[21] = target: Ephrin type-B receptor 2 (Homo sapiens) (UniProt P29323); settings: Compound concentration 1000.0 nM
Sequence of Ephrin type-B receptor 2 (Homo sapiens) (P29323 whole entry): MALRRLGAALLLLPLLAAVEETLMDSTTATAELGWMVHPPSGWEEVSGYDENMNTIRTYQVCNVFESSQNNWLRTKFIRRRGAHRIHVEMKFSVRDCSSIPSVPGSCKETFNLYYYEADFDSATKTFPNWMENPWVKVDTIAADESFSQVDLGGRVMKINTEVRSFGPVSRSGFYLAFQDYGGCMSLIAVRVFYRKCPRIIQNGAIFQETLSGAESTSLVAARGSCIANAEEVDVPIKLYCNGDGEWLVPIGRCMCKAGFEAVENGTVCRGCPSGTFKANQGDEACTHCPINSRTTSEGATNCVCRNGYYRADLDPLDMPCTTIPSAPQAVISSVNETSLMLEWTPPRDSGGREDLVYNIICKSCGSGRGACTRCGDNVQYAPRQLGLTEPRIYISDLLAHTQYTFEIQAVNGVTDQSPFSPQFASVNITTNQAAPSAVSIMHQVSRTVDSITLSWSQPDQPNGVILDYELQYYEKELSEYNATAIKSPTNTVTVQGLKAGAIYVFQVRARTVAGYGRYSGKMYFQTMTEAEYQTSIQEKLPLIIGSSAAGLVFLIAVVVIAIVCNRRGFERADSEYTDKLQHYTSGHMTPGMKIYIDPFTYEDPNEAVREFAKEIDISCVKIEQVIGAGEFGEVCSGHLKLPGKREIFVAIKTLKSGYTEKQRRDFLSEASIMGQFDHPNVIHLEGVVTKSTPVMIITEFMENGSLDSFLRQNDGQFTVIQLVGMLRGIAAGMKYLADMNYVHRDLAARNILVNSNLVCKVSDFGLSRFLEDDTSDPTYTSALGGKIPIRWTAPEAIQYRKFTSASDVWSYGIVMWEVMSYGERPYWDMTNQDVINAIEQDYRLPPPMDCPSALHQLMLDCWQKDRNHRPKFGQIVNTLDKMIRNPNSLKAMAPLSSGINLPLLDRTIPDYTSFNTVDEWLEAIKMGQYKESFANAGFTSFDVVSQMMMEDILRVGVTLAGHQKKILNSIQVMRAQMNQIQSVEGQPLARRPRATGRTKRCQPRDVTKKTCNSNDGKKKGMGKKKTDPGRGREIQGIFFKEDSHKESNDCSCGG

[22] = target: Serine/threonine-protein kinase pim-3 (Homo sapiens) (UniProt Q86V86); settings: Compound concentration 1000.0 nM
[23] = target: SRSF protein kinase 3 (Homo sapiens) (UniProt Q9UPE1); settings: Compound concentration 1000.0 nM
[24] = target: Death-associated protein kinase 3 (Homo sapiens) (UniProt O43293); settings: Compound concentration 1000.0 nM
Sequence of Death-associated protein kinase 3 (Homo sapiens) (O43293 whole entry, looked up): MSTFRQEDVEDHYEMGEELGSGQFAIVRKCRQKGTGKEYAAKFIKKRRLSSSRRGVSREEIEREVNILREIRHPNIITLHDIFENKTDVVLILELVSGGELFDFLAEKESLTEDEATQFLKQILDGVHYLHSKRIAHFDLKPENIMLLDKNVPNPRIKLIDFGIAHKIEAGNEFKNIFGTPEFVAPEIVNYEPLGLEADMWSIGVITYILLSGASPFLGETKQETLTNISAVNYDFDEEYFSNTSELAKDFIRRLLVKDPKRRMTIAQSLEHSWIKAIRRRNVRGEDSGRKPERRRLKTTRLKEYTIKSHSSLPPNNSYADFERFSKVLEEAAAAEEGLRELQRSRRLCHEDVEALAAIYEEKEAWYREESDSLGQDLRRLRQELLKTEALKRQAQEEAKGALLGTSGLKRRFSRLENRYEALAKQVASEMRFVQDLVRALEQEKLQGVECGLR

[25] = target: Mitogen-activated protein kinase 9 (Homo sapiens) (UniProt P45984); settings: Compound concentration 1000.0 nM
[26] = target: Serine/threonine-protein kinase haspin (Homo sapiens) (UniProt Q8TF76); settings: Compound concentration 1000.0 nM
[27] = target: Fibroblast growth factor receptor 1 (Homo sapiens) (UniProt P11362); settings: Compound concentration 1000.0 nM
[28] = target: 3-phosphoinositide-dependent protein kinase 1 (Homo sapiens) (UniProt O15530); settings: Compound concentration 1000.0 nM
[29] = target: Myosin light chain kinase family member 4 (Homo sapiens) (UniProt Q86YV6); settings: Compound concentration 1000.0 nM
[30] = target: Serine/threonine-protein kinase WNK4 (Homo sapiens) (UniProt Q96J92); settings: Compound concentration 1000.0 nM
[31] = target: Cyclin-dependent kinase 13 (Homo sapiens) (UniProt Q14004); settings: Compound concentration 1000.0 nM
[32] = target: Calcium/calmodulin-dependent protein kinase kinase 2 (Homo sapiens) (UniProt Q96RR4); settings: Compound concentration 1000.0 nM
[33] = target: Phosphatidylinositol 4-kinase beta (Homo sapiens) (UniProt Q9UBF8); settings: Compound concentration 1000.0 nM
[34] = target: Serine/threonine-protein kinase PAK 3 (Homo sapiens) (UniProt O75914); settings: Compound concentration 1000.0 nM
Sequence of Serine/threonine-protein kinase PAK 3 (Homo sapiens) (O75914 whole entry, looked up): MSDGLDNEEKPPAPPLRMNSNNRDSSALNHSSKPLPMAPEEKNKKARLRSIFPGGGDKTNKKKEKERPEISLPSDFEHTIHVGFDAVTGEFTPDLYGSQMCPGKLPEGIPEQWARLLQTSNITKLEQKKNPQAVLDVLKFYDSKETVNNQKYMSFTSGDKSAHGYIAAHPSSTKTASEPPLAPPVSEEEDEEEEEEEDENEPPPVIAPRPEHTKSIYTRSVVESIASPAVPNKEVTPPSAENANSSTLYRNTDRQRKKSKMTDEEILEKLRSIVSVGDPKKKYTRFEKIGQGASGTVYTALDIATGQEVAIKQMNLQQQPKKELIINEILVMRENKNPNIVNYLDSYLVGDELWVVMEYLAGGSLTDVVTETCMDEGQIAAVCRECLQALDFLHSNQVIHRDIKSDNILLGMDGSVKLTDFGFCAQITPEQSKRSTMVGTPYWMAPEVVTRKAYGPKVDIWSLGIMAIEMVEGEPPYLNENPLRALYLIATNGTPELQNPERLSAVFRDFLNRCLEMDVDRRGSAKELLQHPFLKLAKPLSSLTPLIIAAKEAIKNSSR

[35] = target: Serine/threonine-protein kinase Nek6 (Homo sapiens) (UniProt Q9HC98); settings: Compound concentration 1000.0 nM
[36] = target: Serine/threonine-protein kinase 33 (Homo sapiens) (UniProt Q9BYT3); settings: Compound concentration 1000.0 nM
[37] = target: Ribosomal protein S6 kinase alpha-6 (Homo sapiens) (UniProt Q9UK32); settings: Compound concentration 1000.0 nM
[38] = target: Serine/threonine-protein kinase PLK1 (Homo sapiens) (UniProt P53350); settings: Compound concentration 1000.0 nM
[39] = target: Serine/threonine-protein kinase Nek10 (Homo sapiens) (UniProt Q6ZWH5); settings: Compound concentration 1000.0 nM
[40] = target: Calcium/calmodulin-dependent protein kinase type II subunit gamma (Homo sapiens) (UniProt Q13555); settings: Compound concentration 1000.0 nM
[41] = test system: Phosphatidylinositol 4,5-bisphosphate 3-kinase catalytic subunit alpha isoform (Homo sapiens), P42336 [E545K]; settings: Compound concentration 1000.0 nM
[42] = target: Mitogen-activated protein kinase 8 (Homo sapiens) (UniProt P45983); settings: Compound concentration 1000.0 nM
[43] = target: 5-hydroxytryptamine receptor 1B (Homo sapiens) (UniProt P28222); settings: Compound concentration 10.0 uM
Sequence of 5-hydroxytryptamine receptor 1B (Homo sapiens) (P28222 whole entry): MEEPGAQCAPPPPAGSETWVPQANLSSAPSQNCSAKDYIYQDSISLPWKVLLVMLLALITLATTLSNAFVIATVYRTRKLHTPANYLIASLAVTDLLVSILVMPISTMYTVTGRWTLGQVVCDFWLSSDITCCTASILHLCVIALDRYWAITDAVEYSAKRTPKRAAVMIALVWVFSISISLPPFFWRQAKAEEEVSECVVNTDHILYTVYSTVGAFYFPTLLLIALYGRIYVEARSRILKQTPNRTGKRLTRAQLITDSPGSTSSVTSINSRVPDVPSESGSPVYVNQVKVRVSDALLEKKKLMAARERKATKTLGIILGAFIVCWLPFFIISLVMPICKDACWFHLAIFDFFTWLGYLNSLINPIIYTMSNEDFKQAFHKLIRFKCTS

[44] = target: Mitogen-activated protein kinase kinase kinase kinase 2 (Homo sapiens) (UniProt Q12851); settings: Compound concentration 1000.0 nM
[45] = target: 5-hydroxytryptamine receptor 2C (Homo sapiens) (UniProt P28335); settings: Compound concentration 10.0 uM

C[C@H](NC(=O)c1cnc2n1[C@](C)(Cc1ccc(C#N)cc1)C(=O)N2c1cc(Cl)c(F)c(Cl)c1)C(=O)NC1(c2ccccn2)CC1 [BI 1950]
inactive: residual activity [1] 93% | residual activity [2] 100% | residual activity [3] 100% | residual activity [4] 100% | residual activity [5] 90% | residual activity [6] 100% | residual activity [7] 90% | residual activity [8] 80% | residual activity [9] 100% | residual activity [10] 100% | residual activity [11] 100% | residual activity [12] 100% | residual activity [13] 100% | residual activity [14] 100% | residual activity [15] 83% | residual activity [16] 100% | residual activity [17] 98% | residual activity [18] 90% | residual activity [19] 100% | inhibition [20] 1.43% | residual activity [21] 100% | residual activity [22] 100% | residual activity [23] 100% | residual activity [24] 97% | residual activity [25] 92% | residual activity [26] 100% | residual activity [27] 100% | residual activity [28] 100% | residual activity [29] 100% | residual activity [30] 100% | residual activity [31] 100% | residual activity [32] 100% | residual activity [33] 100% | residual activity [34] 100% | residual activity [35] 100% | residual activity [36] 88% | residual activity [37] 100% | residual activity [38] 100% | residual activity [39] 100% | residual activity [40] 100% | residual activity [41] 100% | residual activity [42] 81% | inhibition [43] 16.5% | residual activity [44] 100% | inhibition [45] 24.3%

C[C@@]1(Cc2ccc(C#N)cc2)C(=O)N(c2cc(Cl)cc(Cl)c2)c2ncc(C(=O)NC3(c4nc(C5CCC5)no4)CC3)n21 [BI 9446]
inactive: residual activity [1] 95% | residual activity [2] 97% | residual activity [3] 100% | residual activity [4] 100% | residual activity [5] 100% | residual activity [6] 100% | residual activity [7] 91% | residual activity [8] 100% | residual activity [9] 87% | residual activity [10] 100% | residual activity [11] 100% | residual activity [12] 100% | residual activity [13] 100% | residual activity [14] 100% | residual activity [15] 100% | residual activity [16] 100% | residual activity [17] 100% | residual activity [18] 100% | residual activity [19] 100% | inhibition [20] 20% | residual activity [21] 94% | residual activity [22] 100% | residual activity [23] 100% | residual activity [24] 94% | residual activity [25] 100% | residual activity [26] 100% | residual activity [27] 100% | residual activity [28] 100% | residual activity [29] 100% | residual activity [30] 100% | residual activity [31] 100% | residual activity [32] 100% | residual activity [33] 100% | residual activity [34] 100% | residual activity [35] 100% | residual activity [36] 100% | residual activity [37] 100% | residual activity [38] 100% | residual activity [39] 100% | residual activity [40] 100% | residual activity [41] 94% | residual activity [42] 100% | inhibition [43] 17.5% | residual activity [44] 100% | inhibition [45] 32.9%
